Laboratory results: patent publication US20230117034A1, “PYRAZOLOTRIAZINES” (Bayer Aktiengesellschaft, priority 2019, published 2023)

Legend:
[1] = molecular target: T1, CDK12 (nuclear staining in CAL-120 cells) (Homo sapiens, UniProt Q9NYV4); assay: CDK12 nuclear protein level: immunofluorescence/high content analysis (CAL-120); type: cell-based; conditions: for DC50: CAL-120 cells, 24 h, immunofluorescence, 50% reduction of nuclear CDK12 staining intensity, median, read-out: CDK12 degradation IF, DC50- [mol/l] (median); for (IC50 CDK12 high ATP) to (Degradation DC50 CDK12) ratio: ratio of IC50 CDK12 high ATP kinase assay to DC50 CDK12 degradation (IF, CAL-120)
T1 construct: endogenous in cells; host or cells: CAL-120 human breast cancer cells (DSMZ ACC 459)
In short: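 CAL-120 cells were treated with compound for 24 h at 37 °C, fixed with PFA and immunostained for CDK12. Nuclear CDK12 intensity was quantified by automated image analysis and normalized to DMSO and control. DC50 is the concentration giving 50% reduction of nuclear staining.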

[2] = molecular target: T2, CDK9/CycT1 (Homo sapiens, UniProt P50750); assay: CDK9/CycT1 high ATP kinase assay (TR-FRET, 2 mM ATP); type: biochemical; conditions: 2 mM ATP (high ATP); median; read-out: CDK9/CyclinT1, 2 mM ATP (high ATP), IC50 (median)
T2 construct: Recombinant full-length His-tagged human CDK9 and CycT1; purchased Life Technologies PV4131; host or cells: insect cells
In short: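 Full-length His-tagged human CDK9/CycT1 (insect cell, ~0.5 μg/mL) preincubated 15 min at 22 °C with compound in Tris pH 8.0, MgCl2, DTT buffer before reaction with biotinylated peptide substrate at high ATP (2 mM).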

T2 sequence (P50750 whole entry): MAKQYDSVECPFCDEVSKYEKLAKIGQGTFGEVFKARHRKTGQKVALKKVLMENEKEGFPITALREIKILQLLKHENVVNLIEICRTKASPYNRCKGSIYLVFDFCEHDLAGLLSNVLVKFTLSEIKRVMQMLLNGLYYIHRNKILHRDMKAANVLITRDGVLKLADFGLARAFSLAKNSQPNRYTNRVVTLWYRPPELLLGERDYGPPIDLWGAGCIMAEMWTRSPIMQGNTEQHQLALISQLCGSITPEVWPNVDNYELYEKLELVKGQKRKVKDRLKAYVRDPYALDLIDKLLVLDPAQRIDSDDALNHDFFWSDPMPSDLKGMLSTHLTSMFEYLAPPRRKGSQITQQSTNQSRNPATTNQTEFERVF
T2 sequence (O60563 whole entry partner): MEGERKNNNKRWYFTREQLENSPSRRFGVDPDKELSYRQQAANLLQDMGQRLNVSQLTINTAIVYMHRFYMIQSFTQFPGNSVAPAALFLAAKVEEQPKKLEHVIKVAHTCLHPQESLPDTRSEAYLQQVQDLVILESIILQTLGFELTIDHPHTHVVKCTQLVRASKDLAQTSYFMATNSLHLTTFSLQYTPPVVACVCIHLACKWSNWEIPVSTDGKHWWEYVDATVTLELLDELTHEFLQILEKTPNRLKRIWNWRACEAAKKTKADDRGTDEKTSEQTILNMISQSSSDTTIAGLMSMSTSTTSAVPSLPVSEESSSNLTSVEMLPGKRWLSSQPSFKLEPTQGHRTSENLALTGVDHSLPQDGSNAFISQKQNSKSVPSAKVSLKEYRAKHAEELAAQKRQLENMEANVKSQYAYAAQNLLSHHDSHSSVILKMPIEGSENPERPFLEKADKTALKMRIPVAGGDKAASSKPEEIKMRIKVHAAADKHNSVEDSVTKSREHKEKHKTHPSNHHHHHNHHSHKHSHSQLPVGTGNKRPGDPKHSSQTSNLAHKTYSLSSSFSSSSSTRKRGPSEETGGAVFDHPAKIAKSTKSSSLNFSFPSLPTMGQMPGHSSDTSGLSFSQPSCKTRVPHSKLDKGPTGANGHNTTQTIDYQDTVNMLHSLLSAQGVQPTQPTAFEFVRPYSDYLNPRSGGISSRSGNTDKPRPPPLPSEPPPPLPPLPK
T1 sequence (Q9NYV4 whole entry): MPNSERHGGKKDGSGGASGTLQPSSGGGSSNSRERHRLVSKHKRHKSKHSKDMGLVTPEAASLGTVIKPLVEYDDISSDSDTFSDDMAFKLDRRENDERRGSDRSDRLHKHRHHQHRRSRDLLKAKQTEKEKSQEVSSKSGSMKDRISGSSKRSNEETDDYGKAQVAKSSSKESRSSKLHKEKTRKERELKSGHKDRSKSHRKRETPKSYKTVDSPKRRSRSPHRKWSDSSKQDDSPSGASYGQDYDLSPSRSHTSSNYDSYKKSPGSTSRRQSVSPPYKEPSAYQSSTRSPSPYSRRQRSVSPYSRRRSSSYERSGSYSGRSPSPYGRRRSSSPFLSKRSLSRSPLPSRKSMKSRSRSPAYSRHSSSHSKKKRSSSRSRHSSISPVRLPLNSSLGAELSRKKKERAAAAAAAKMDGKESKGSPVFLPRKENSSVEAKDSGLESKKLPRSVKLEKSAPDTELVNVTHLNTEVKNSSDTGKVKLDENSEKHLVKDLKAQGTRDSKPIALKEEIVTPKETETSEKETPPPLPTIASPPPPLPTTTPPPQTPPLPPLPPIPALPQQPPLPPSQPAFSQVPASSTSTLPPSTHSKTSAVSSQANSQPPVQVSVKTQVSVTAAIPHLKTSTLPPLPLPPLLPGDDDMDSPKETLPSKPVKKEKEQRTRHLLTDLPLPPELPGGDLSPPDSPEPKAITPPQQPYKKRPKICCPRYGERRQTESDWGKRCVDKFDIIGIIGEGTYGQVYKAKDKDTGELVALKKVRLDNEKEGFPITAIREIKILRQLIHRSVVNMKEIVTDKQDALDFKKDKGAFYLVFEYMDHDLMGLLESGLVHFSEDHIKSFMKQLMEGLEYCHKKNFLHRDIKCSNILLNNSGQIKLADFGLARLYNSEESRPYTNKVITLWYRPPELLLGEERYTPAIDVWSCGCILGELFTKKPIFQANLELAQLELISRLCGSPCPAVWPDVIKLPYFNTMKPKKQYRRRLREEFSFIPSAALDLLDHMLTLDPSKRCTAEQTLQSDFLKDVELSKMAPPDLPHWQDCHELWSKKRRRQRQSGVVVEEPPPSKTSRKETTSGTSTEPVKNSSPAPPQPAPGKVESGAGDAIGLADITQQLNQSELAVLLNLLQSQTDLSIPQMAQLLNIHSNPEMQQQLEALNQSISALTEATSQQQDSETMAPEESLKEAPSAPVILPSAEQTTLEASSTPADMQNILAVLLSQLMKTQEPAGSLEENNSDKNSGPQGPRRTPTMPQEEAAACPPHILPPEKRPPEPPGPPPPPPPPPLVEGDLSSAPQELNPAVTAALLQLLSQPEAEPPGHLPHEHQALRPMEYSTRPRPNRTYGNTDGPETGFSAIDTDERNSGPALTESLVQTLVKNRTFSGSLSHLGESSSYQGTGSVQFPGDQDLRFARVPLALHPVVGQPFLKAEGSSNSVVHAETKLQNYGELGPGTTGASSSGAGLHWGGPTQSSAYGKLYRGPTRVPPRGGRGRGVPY
T1 sequence (O75909 whole entry partner): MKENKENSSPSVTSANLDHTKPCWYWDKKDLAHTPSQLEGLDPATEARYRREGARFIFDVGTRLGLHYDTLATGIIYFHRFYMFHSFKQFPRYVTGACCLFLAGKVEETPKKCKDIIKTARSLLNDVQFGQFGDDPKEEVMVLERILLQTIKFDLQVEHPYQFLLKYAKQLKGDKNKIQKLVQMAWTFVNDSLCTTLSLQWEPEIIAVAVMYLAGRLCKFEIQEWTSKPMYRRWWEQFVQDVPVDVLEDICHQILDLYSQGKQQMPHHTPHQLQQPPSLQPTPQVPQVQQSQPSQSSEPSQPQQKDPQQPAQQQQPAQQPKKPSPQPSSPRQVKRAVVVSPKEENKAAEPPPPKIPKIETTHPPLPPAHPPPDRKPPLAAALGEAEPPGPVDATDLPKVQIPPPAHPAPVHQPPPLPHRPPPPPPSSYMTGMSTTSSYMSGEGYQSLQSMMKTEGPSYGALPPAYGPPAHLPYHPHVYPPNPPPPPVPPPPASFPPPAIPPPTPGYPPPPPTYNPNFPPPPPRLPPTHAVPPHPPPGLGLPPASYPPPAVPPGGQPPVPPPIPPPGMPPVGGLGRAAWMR

CN(C)C1CCN(c2nc(NCc3nc4ccccc4[nH]3)n3ncc(Br)c3n2)CC1 [Example 201, N-[(1H-benzimidazol-2-yl)methyl]-8-bromo-2-[4-(dimethylamino)piperidin-1-yl]pyrazolo[1,5-a][1,3,5]triazin-4-amine]
DC50 [1]: 61.3 nM | (IC50 CDK12 high ATP) to (Degradation DC50 CDK12) ratio [1]: >326 | IC50 [2]: > 20000 nM

Fc1ccc2[nH]c(CNc3nc(N4C[C@@H]5CCCN[C@@H]5C4)nc4c(C5CC5)cnn34)nc2c1F [Example 171, 8-cyclopropyl-N-[(4,5-difluoro-1H-benzimidazol-2-yl)methyl]-2-[(4aS,7aS)-octahydro-6H-pyrrolo[3,4-b]pyridin-6-yl]pyrazolo[1,5-a][1,3,5]triazin-4-amine]
DC50 [1]: 2 nM | (IC50 CDK12 high ATP) to (Degradation DC50 CDK12) ratio [1]: 3278 | IC50 [2]: > 20000 nM

Fc1ccc2[nH]c(CNc3nc(N4C[C@@H]5C[C@H]4CO5)nc4c(C5CC5)cnn34)nc2c1 [Example 185, 8-cyclopropyl-N-[(5-fluoro-1H-benzimidazol-2-yl)methyl]-2-[(1S,4S)-2-oxa-5-azabicyclo[2.2.1]heptan-5-yl]pyrazolo[1,5-a][1,3,5]triazin-4-amine]
DC50 [1]: 2.49 nM | (IC50 CDK12 high ATP) to (Degradation DC50 CDK12) ratio [1]: >7872 | IC50 [2]: > 20000 nM

C[C@@H]1CN(c2nc(NCc3nc4c(F)c(F)ccc4[nH]3)n3ncc(C4CC4)c3n2)C[C@H](C)N1 [Example 170, 8-cyclopropyl-N-[(4,5-difluoro-1H-benzimidazol-2-yl)methyl]-2-[(3R,5S)-3,5-dimethylpiperazin-1-yl]pyrazolo[1,5-a][1,3,5]triazin-4-amine]
DC50 [1]: 0.574 nM | (IC50 CDK12 high ATP) to (Degradation DC50 CDK12) ratio [1]: 5303 | IC50 [2]: > 20000 nM

CN1CC2CCC(C1)N2c1nc(NCc2nc3ccccc3[nH]2)n2ncc(Br)c2n1 [Example 226, N-(1H-benzimidazol-2-ylmethyl)-8-bromo-2-(3-methyl-3,8-diazabicyclo[3.2.1]octan-8-yl)pyrazolo[1,5-a][1,3,5]triazin-4-amine]
DC50 [1]: 27.6 nM | (IC50 CDK12 high ATP) to (Degradation DC50 CDK12) ratio [1]: >725 | IC50 [2]: > 20000 nM

CCN(C)c1nc(NCc2nc3ccccc3[nH]2)n2ncc(Br)c2n1 [Example 233, N4-(1H-benzimidazol-2-ylmethyl)-8-bromo-N2-ethyl-N2-methyl-pyrazolo[1,5-a][1,3,5]triazine-2,4-diamine]
DC50 [1]: 103 nM | (IC50 CDK12 high ATP) to (Degradation DC50 CDK12) ratio [1]: 73 | IC50 [2]: > 20000 nM

OC[C@@H]1CCCCN1c1nc(NCc2nc3cc(F)ccc3[nH]2)n2ncc(C3CC3)c2n1 [Example 191, [(2S)-1-(8-cyclopropyl-4-{[(5-fluoro-1H-benzimidazol-2-yl)methyl]amino}pyrazolo[1,5-a][1,3,5]triazin-2-yl)piperidin-2-yl]methanol]
DC50 [1]: 0.606 nM | (IC50 CDK12 high ATP) to (Degradation DC50 CDK12) ratio [1]: 548 | IC50 [2]: 7340 nM

CN1CC2CN(c3nc(NCc4nc5ccccc5[nH]4)n4ncc(Br)c4n3)CC2C1 (stereo not drawn) [Example 240, N-(1H-benzimidazol-2-ylmethyl)-8-bromo-2-(2-methyl-1,3,3a,4,6,6a-hexahydropyrrolo[3,4-c]pyrrol-5-yl)pyrazolo[1,5-a][1,3,5]triazin-4-amine]
DC50 [1]: 5.56 nM | (IC50 CDK12 high ATP) to (Degradation DC50 CDK12) ratio [1]: >3596 | IC50 [2]: > 20000 nM

CC(C)c1cnn2c(NCc3nc4ccccc4[nH]3)nc(Nc3ccccc3)nc12 [Example 13, N^4-[(1H-benzimidazol-2-yl)methyl]-N^2-phenyl-8-(propan-2-yl)pyrazolo[1,5-a][1,3,5]triazine-2,4-diamine]
DC50 [1]: 43.8 nM | (IC50 CDK12 high ATP) to (Degradation DC50 CDK12) ratio [1]: >457 | IC50 [2]: > 20000 nM

Fc1ccc2[nH]c(CNc3nc(N4C[C@@H]5C[C@H]4CO5)nc4c(C5CC5)cnn34)nc2c1F [Example 173, 8-cyclopropyl-N-[(4,5-difluoro-1H-benzimidazol-2-yl)methyl]-2-[(1S,4S)-2-oxa-5-azabicyclo[2.2.1]heptan-5-yl]pyrazolo[1,5-a][1,3,5]triazin-4-amine]
DC50 [1]: 1.74 nM | (IC50 CDK12 high ATP) to (Degradation DC50 CDK12) ratio [1]: >11498 | IC50 [2]: > 20000 nM

OCCNc1nc(NCc2nc3ccccc3[nH]2)n2ncc(Br)c2n1 [Example 228, 2-[(4-{[(1H-benzimidazol-2-yl)methyl]amino}-8-bromopyrazolo[1,5-a][1,3,5]triazin-2-yl)amino]ethan-1-ol]
DC50 [1]: 47.1 nM | (IC50 CDK12 high ATP) to (Degradation DC50 CDK12) ratio [1]: >425 | IC50 [2]: > 20000 nM

OC1(C(F)(F)F)CCN(c2nc(NCc3nc4ccccc4[nH]3)n3ncc(Br)c3n2)C1 (stereo not drawn) [Example 200, 1-[4-(1H-benzimidazol-2-ylmethylamino)-8-bromo-pyrazolo[1,5-a][1,3,5]triazin-2-yl]-3-(trifluoromethyl)pyrrolidin-3-ol]
DC50 [1]: 117 nM | (IC50 CDK12 high ATP) to (Degradation DC50 CDK12) ratio [1]: 37 | IC50 [2]: > 20000 nM

Cc1ccc2[nH]c(CNc3nc(N4C[C@@H]5CCCN[C@@H]5C4)nc4c(Br)cnn34)nc2c1 [Example 203, 8-bromo-N-[(5-methyl-1H-benzimidazol-2-yl)methyl]-2-[(4aS, 7aS)-octahydro-6H-pyrrolo[3,4-b]pyridin-6-yl]pyrazolo[1,5-a][1,3,5]triazin-4-amine]
DC50 [1]: 0.64 nM | (IC50 CDK12 high ATP) to (Degradation DC50 CDK12) ratio [1]: 13757 | IC50 [2]: > 20000 nM

CC1(C)CN(c2nc(NCc3nc4ccccc4[nH]3)n3ncc(Br)c3n2)CCN1 [Example 216, N-[(1H-benzimidazol-2-yl)methyl]-8-bromo-2-(3,3-dimethylpiperazin-1-yl)pyrazolo[1,5-a][1,3,5]triazin-4-amine]
DC50 [1]: 3.31 nM | (IC50 CDK12 high ATP) to (Degradation DC50 CDK12) ratio [1]: >1386 | IC50 [2]: > 20000 nM

Cc1ccc2[nH]c(CNc3nc(N4C[C@H]5C[C@@H]4CO5)nc4c(Br)cnn34)nc2c1 [Example 192, 8-bromo-N-[(5-methyl-1H-benzimidazol-2-yl)methyl]-2-[(1R,4R)-2-oxa-5-azabicyclo[2.2.1]heptan-5-yl]pyrazolo[1,5-a][1,3,5]triazin-4-amine]
DC50 [1]: 0.56 nM | (IC50 CDK12 high ATP) to (Degradation DC50 CDK12) ratio [1]: 15180 | IC50 [2]: > 20000 nM

OC[C@@H]1CCCCN1c1nc(NCc2nc3c(F)c(F)ccc3[nH]2)n2ncc(C3CC3)c2n1 [Example 184, [(2S)-1-(8-cyclopropyl-4-{[(4,5-difluoro-1H-benzimidazol-2-yl)methyl]amino}pyrazolo[1,5-a][1,3,5]triazin-2-yl)piperidin-2-yl]methanol]
DC50 [1]: 1.75 nM | (IC50 CDK12 high ATP) to (Degradation DC50 CDK12) ratio [1]: 8 | IC50 [2]: 1640 nM

CN(C)[C@@H]1CCN(c2nc(NCc3nc4ccccc4[nH]3)n3ncc(Br)c3n2)C1 [Example 178, N-[(1H-benzimidazol-2-yl)methyl]-8-bromo-2-[(3R)-3-(dimethylamino)pyrrolidin-1-yl]pyrazolo[1,5-a][1,3,5]triazin-4-amine]
DC50 [1]: 25.5 nM | (IC50 CDK12 high ATP) to (Degradation DC50 CDK12) ratio [1]: >783 | IC50 [2]: > 20000 nM

Fc1cccc2[nH]c(CNc3nc(N4C[C@@H]5CCCN[C@@H]5C4)nc4c(C5CC5)cnn34)nc12 [Example 187, 8-cyclopropyl-N-[(4-fluoro-1H-benzimidazol-2-yl)methyl]-2-[(4aS,7aS)-octahydro-6H-pyrrolo[3,4-b]pyridin-6-yl]pyrazolo[1,5-a][1,3,5]triazin-4-amine]
DC50 [1]: 0.707 nM | (IC50 CDK12 high ATP) to (Degradation DC50 CDK12) ratio [1]: 9192 | IC50 [2]: > 20000 nM
